From ChEMBL document CHEMBL1151294, “Evaluation of limonoids against the murine P388 lymphocytic leukemia cell line” (J Nat Prod, 1983)
Calls of active or inactive are those of the source. No cut-off for these calls is given here.

What was measured:
Assay type in all cases: functional, organism-based
[1] = system: P388; assay: In vivo antitumor activity against mouse P388 cells at 0.25 to 2 mg
[2] = system: P388; assay: In vivo antitumor activity against mouse P388 cells at 0.5 to 4 mg
[3] = system: P388; assay: In vivo antitumor activity against mouse P388 cells at 2.5 to 40 mg
[4] = system: P388; assay: In vivo antitumor activity against mouse P388 cells at 0.75 to 6 mg
[5] = system: P388; assay: In vivo antitumor activity against mouse P388 cells at 0.75 to 12 mg
[6] = system: P388; assay: In vivo antitumor activity against mouse P388 cells at 0.03 to 2 mg
[7] = system: P388; assay: In vivo antitumor activity against mouse P388 cells at 1.5 to 24 mg
[8] = system: P388; assay: In vivo antitumor activity against mouse P388 cells at 1.25 to 10 mg
[9] = system: P388; assay: In vivo antitumor activity against mouse P388 cells at 2 to 200 mg
[10] = system: P388; assay: In vivo antitumor activity against mouse P388 cells at 5 to 20 mg
[11] = system: P388; assay: In vivo antitumor activity against mouse P388 cells at 1.25 to 2.5 mg
[12] = system: P388; assay: In vivo antitumor activity against mouse P388 cells at 0.01 to 2.4 mg
[13] = system: P388; assay: In vivo antitumor activity against mouse P388 cells at 3 to 24 mg
[14] = system: P388; assay: In vivo antitumor activity against mouse P388 cells at 0.37 to 6 mg
[15] = system: P388; assay: In vivo antitumor activity against mouse P388 cells at 0.5 to 8 mg
[16] = system: P388; assay: In vivo antitumor activity against mouse P388 cells at 1.5 to 12 mg
[17] = system: P388; assay: In vivo antitumor activity against mouse P388 cells at 3.7 to 7.5 mg

With `CC(=O)O[C@@H]1C[C@H](O)[C@@]23CO[C@H](O)[C@]1(C)[C@@H]2C[C@@H](O)[C@]1(C)[C@@H]3C(=O)C[C@@]2(C)[C@H](c3ccoc3)C[C@H]3O[C@]312` the Activity [1] was “inactive”.
For `CC1(C)O[C@H]2CC(=O)OC[C@@]23[C@H]1CC(=O)[C@@]1(C)C2=CC(=O)O[C@H](c4ccoc4)[C@]2(C)CC[C@@H]13`, the Activity [2] was “inactive”.
In the case of `CC(=O)O[C@@H]1C[C@H]2C(C)(C)C(=O)C=C[C@]2(C)[C@H]2CC[C@]3(C)C(=CC(=O)O[C@H]3c3ccoc3)[C@@]21C`, the Activity [3] is reported as “inactive”.
With `CC(C)(O)[C@@H]1CC(=O)[C@]2(C)[C@H](CC[C@@]3(C)[C@@H](c4ccoc4)OC(=O)[C@H]4O[C@]432)[C@@]1(C)/C=C\C(=O)O` the Activity [4] was “inactive”.
In the case of `CC1(C)O[C@@H](CC(=O)O)[C@]23CO[C@H](C(=O)[C@]4(C)[C@@H]2CC[C@@]2(C)[C@@H](c5ccoc5)OC(=O)[C@H]5O[C@]524)[C@H]13`, the Activity [4] is reported as “inactive”.
With `CC(=O)O[C@@H]1C[C@@H]2[C@](C)(C=C[C@@H](O)[C@]2(C)OC(C)=O)[C@H]2C(=O)[C@H](OC(C)=O)[C@@]3(C)C(c4ccoc4)C[C@H]4O[C@@]43[C@@]21C` (single isomer, unassigned) the Activity [5] was “inactive”.
For `C[C@H]1CC[C@@]23COC(=O)C2=CCC[C@@H]3[C@@]12C[C@H](c1ccoc1)OC2=O`, the Activity [6] was “inactive”.
With `CC1(C)C(=O)C=C[C@]2(C)[C@H]3CC[C@@]4(C)[C@H](c5ccoc5)OC(=O)[C@H]5O[C@]54[C@]3(C)C(=O)C[C@@H]12` the Activity [7] was “inactive”.
`CC(=O)O[C@H]1[C@@H](OC(C)=O)[C@]2(C)[C@H](CC[C@]3(C)[C@H](c4ccoc4)C[C@@H]4O[C@]423)[C@@]2(C)C=CC(=O)OC(C)(C)[C@H]12` was tested, and the Activity [8] was “inactive”.
In the case of `CC1=C2CC(=O)O[C@H](c3ccoc3)[C@]2(C)CC[C@@H]1[C@@]12COC(=O)C[C@@H]1OC(C)(C)C2CC(=O)O` (stereo partly drawn), the Activity [2] is reported as “inactive”.
In the case of `C=C1[C@@H]2CC[C@@]3(C)[C@H](c4ccoc4)OC(=O)C[C@]13O[C@H]1CC(=O)C(C)(C)[C@H](CC(=O)OC)[C@]12C`, the Activity [9] is reported as “inactive”.
In the case of `CC(=O)O[C@@H]1C[C@H](O)[C@@]23CO[C@H](O)[C@]1(C)[C@@H]2C[C@@H](O)[C@]1(C)[C@@H]3C(=O)[C@H](O)[C@@]2(C)[C@H](c3ccoc3)C[C@H]3O[C@@]321`, the Activity [10] is reported as “Toxic” and the Activity [11] is reported as “inactive”.
In the case of `CC(=O)O[C@@H]1C[C@H](O)[C@@]23CO[C@H](O)[C@]1(C)[C@@H]2C[C@@H](O)[C@@]1(C)[C@@H]2C(=O)C[C@@H](c4ccoc4)[C@]2(C)CC(=O)[C@@H]13`, the Activity [12] is reported as “inactive”.
`CC(=O)O[C@@H]1C[C@@]2(C)[C@H](c3ccoc3)C[C@H]3O[C@]32[C@]2(C)C(=O)C(O)=C3C(C)(C)C(=O)C=C[C@]3(C)C12` (stereo partly drawn) was tested, and the Activity [13] was “inactive”.
With `CC(=O)OC1[C@@H]2[C@@]3(C)C=C[C@@H](O)[C@](C)(OC(C)=O)[C@@H]3C[C@@H](OC(C)=O)[C@@]2(C)[C@]23O[C@@H]2CC(c2ccoc2)[C@]3(C)[C@H]1OC(=O)C(C)C` (single isomer, unassigned) the Activity [5] was “inactive”.
`CC(=O)OC1=C2C(C)(C)O[C@H]3CC(=O)OC[C@@]23[C@H]2CC[C@@]3(C)[C@@H](c4ccoc4)OC(=O)[C@H]4O[C@]43[C@]2(C)C1=O` was tested, and the Activity [2] was “inactive”.
For `CC1(C)O[C@@H](CC(=O)O)[C@]23CO[C@H](C(=O)[C@]4(C)[C@@H]2CC[C@@]2(C)[C@H]([C@H]5CCOC5)OC(=O)[C@H]5O[C@]524)[C@H]13`, the Activity [2] was “inactive”.
In the case of `COC(=O)[C@@]1(C)CCC[C@]2(C)C3=C(CC[C@@H]12)C(=O)c1occc1CC3`, the Activity [14] is reported as “inactive”.
`C[C@]12C[C@H](c3ccoc3)OC(=O)[C@@H]1CC[C@@]13COC(=O)C1=CCC[C@@H]32` was tested, and the Activity [1] was “inactive”.
For `CC1(C)C(=O)CC[C@]2(C)[C@H]3CC[C@@]4(C)[C@H](c5ccoc5)OC(=O)[C@H]5O[C@]54[C@]3(C)C(=O)C[C@@H]12`, the Activity [15] was “inactive”.
With `CC1(C)OC(=O)C=C[C@]2(C)[C@H]3CC[C@]4(C)[C@H](c5ccoc5)C[C@@H]5O[C@@]54[C@]3(C)C(=O)[C@H](O)[C@@H]12` the Activity [8] was “inactive”.
For `CC1(C)O[C@H]1[C@H]1C[C@@H]([C@@H]2CC[C@]3(C)C4=CC[C@H]5C(C)(C)C(=O)CC[C@]5(C)[C@H]4CC[C@@]23C)[C@H](O)O1`, the Activity [16] was “inactive”.
With `CC1(C)C(=O)C=C[C@]2(C)[C@H]3CC[C@@]4(C)[C@H](c5ccoc5)OC(=O)[C@H]5O[C@]54[C@]3(C)[C@H](O)C[C@@H]12` the Activity [7] was “inactive”.
In the case of `CC1(C)O[C@H]2CC(=O)OC[C@]23[C@H]2CC[C@@]4(C)[C@@H](c5ccoc5)OC(=O)[C@H]5O[C@]54[C@]2(C)[C@@H](OC(=O)CCl)C[C@@H]13`, the Activity [15] is reported as “inactive”.
`CC1(C)O[C@H]2CC(=O)OC[C@]23[C@H]2CC[C@@]4(C)[C@@H](c5ccoc5)OC(=O)[C@H]5O[C@]54[C@]2(C)[C@@H](O)C[C@@H]13` was tested, and the Activity [4] was “inactive”.
With `CC1(C)O[C@H]2CC(=O)OC[C@@]23C1=C(O)C(=O)[C@]1(C)[C@@H]3CC[C@@]2(C)[C@@H](c3ccoc3)OC(=O)[C@H]3O[C@]321` the Activity [2] was “inactive”.
With `C=C1[C@@H]([C@@]2(C)[C@@H](OC(C)=O)CC(=O)O[C@](C)(COC(C)=O)[C@@H]2C(=O)OC)[C@@H](OC=O)[C@H](OC(=O)[C@H](O)[C@H](C)CC)[C@@]2(C)[C@H](c3ccoc3)CC(=O)[C@]12O` the Activity [17] was “inactive”.
